Results reported in US8779197B2, “Aryl amides useful as inhibitors of voltage-gated sodium channels” (Vertex Pharmaceuticals Incorporated, priority 2007, dated 2014).
Read-outs that look alike come from different tables or passages of the source.

What was measured:
NaV1.3 [1] = target: T1, NaV1.3 (Homo sapiens, UniProt Q9NY46); test: Activity against NaV 1.3 channel (optical membrane potential assay); format: cell-based; parameters: expressed in transfected cells; host or cells: HEK293
Method: (§1) Compounds of the invention are useful as antagonists of voltage-gated sodium ion channels. Antagonist properties of test compounds were assessed as follows. Cells expressing the NaV of interest were placed into microtiter plates. After an incubation period, the cells were stained with fluorescent dyes sensitive to the transmembrane potential. The test compounds were added to the microtiter plate. The cells were stimulated with either a chemical or electrical means to evoke a NaV dependent membrane potential change from unblocked channels, which was detected and measured with trans-membrane potential-sensitive dyes. Antagonists were detected as a decreased membrane potential response to the stimulus. The optical membrane potential assay utilized voltage-sensitive FRET sensors described by Gonzalez and Tsien (See, Gonzalez, J. E. and R. Y. Tsien (1995) “Voltage sensing by fluorescence resonance energy transfer in single cells” Biophys J 69(4): 1272-80, and Gonzalez, J. E. and R. Y. Tsien (1997) “Improved indicators of cell membrane potential that use fluorescence resonance energy transfer” Chem Biol 4(4): 269-77) in combination with instrumentation for measuring fluorescence changes such as the Voltage/Ion Probe Reader (VIPR®) (See, Gonzalez, J. E., K. Oades, et al. (1999) “Cell-based assays and instrumentation for screening ion-channel targets” Drug Discov Today 4(9): 431-439).
(§2) C) VIPR® Optical Membrane Potential Assay Method with Electrical Stimulation
(§3) The following is an example of how NaV1.3 inhibition activity is measured using the optical membrane potential method#2. Other subtypes are performed in an analogous mode in a cell line expressing the NaV of interest.
HEK293 cells stably expressing NaV1.3 are plated into 96-well microtiter plates. After an appropriate incubation period, the cells are stained with the voltage sensitive dyes CC2-DMPE/DiSBAC2(3) as follows.
(§4) 10 mM CC2-DMPE is vortexed with an equivalent volume of 10% pluronic, followed by vortexing in required amount of HBSS containing 10 mM HEPES. Each cell plate will require 5 mL of 2×CC2-DMPE. 50 µL of 2×CC2-DMPE is to wells containing washed cells, resulting in a 10 μM final staining concentration. The cells are stained for 30 minutes in the dark at RT.
(§5) The required amount of 10 mM DISBAC2(3) is added to a 50 ml conical tube and mixed with 1 μL 10% pluronic for each mL of solution to be made and vortexed together. Then HBSS/HEPES is added to make up 2× solution. Finally, the ABSC1 is added.
(§6) The 2×DiSBAC2(3) solution can be used to solvate compound plates. Note that compound plates are made at 2× drug concentration. Wash stained plate again, leaving residual volume of 50 μL. Add 50 uL/well of the 2×DiSBAC2(3) w/ABSC1. Stain for 30 minutes in the dark at RT.
(§7) The electrical stimulation instrument and methods of use are described in ION Channel Assay Methods PCT/US01/21652, herein incorporated by reference. The instrument comprises a microtiter plate handler, an optical system for exciting the coumarin dye while simultaneously recording the coumarin and oxonol emissions, a waveform generator, a current- or voltage-controlled amplifier, and a device for inserting electrodes in well. Under integrated computer control, this instrument passes user-programmed electrical stimulus protocols to cells within the wells of the microtiter plate.
(§8) Assay Protocol • 1. Insert or use electrodes into each well to be assayed. • 2. Use the current-controlled amplifier to deliver stimulation wave pulses for 3 s. Two seconds of pre-stimulus recording are performed to obtain the un-stimulated intensities. Five seconds of post-stimulation recording are performed to examine the relaxation to the resting state.
Data are analyzed and reported as normalized ratios of background-subtracted emission intensities measured in the 460 nm and 580 nm channels. Background intensities are then subtracted from each assay channel. […]

NaV1.8 = NaV1.8 (Homo sapiens, UniProt Q9Y5Y9); test: Activity against NaV 1.8 channel (optical membrane potential assay); format: cell-based
Method: as §1, §2, §3, §4, §5, §6, §7, §8
(§9) Data are analyzed and reported as normalized ratios of background-subtracted emission intensities measured in the 460 nm and 580 nm channels. Background intensities are then subtracted from each assay channel. Background intensities are obtained by measuring the emission intensities during the same time periods from identically treated assay wells in which there are no cells. The response as a function of time is then reported as the ratios obtained using the following formula: […]

NaV 1.7 channel = NaV 1.7 channel (Homo sapiens, UniProt Q15858); test: Activity against NaV 1.7 channel (optical membrane potential assay); format: cell-based
Method: as §1, §2, §3, §4, §5, §6, §7, §8, §9

NaV1.3 [2] = target: T1, NaV1.3; conditions: read-out: TTX IC50; cited from earlier work
NaV1.1 = NaV1.1 (Homo sapiens, UniProt P35498); conditions: read-out: TTX IC50; cited from earlier work
NaV1.6 = NaV1.6 (Homo sapiens, UniProt Q9UQD0); conditions: read-out: TTX IC50; cited from earlier work
NaV1.9 = NaV1.9 (Homo sapiens, UniProt Q9UI33); conditions: read-out: TTX IC50; cited from earlier work
NaV1.2 = NaV1.2 (Homo sapiens, UniProt Q99250); conditions: read-out: TTX IC50; cited from earlier work

Sequence of NaV 1.7 channel (Q15858 whole entry): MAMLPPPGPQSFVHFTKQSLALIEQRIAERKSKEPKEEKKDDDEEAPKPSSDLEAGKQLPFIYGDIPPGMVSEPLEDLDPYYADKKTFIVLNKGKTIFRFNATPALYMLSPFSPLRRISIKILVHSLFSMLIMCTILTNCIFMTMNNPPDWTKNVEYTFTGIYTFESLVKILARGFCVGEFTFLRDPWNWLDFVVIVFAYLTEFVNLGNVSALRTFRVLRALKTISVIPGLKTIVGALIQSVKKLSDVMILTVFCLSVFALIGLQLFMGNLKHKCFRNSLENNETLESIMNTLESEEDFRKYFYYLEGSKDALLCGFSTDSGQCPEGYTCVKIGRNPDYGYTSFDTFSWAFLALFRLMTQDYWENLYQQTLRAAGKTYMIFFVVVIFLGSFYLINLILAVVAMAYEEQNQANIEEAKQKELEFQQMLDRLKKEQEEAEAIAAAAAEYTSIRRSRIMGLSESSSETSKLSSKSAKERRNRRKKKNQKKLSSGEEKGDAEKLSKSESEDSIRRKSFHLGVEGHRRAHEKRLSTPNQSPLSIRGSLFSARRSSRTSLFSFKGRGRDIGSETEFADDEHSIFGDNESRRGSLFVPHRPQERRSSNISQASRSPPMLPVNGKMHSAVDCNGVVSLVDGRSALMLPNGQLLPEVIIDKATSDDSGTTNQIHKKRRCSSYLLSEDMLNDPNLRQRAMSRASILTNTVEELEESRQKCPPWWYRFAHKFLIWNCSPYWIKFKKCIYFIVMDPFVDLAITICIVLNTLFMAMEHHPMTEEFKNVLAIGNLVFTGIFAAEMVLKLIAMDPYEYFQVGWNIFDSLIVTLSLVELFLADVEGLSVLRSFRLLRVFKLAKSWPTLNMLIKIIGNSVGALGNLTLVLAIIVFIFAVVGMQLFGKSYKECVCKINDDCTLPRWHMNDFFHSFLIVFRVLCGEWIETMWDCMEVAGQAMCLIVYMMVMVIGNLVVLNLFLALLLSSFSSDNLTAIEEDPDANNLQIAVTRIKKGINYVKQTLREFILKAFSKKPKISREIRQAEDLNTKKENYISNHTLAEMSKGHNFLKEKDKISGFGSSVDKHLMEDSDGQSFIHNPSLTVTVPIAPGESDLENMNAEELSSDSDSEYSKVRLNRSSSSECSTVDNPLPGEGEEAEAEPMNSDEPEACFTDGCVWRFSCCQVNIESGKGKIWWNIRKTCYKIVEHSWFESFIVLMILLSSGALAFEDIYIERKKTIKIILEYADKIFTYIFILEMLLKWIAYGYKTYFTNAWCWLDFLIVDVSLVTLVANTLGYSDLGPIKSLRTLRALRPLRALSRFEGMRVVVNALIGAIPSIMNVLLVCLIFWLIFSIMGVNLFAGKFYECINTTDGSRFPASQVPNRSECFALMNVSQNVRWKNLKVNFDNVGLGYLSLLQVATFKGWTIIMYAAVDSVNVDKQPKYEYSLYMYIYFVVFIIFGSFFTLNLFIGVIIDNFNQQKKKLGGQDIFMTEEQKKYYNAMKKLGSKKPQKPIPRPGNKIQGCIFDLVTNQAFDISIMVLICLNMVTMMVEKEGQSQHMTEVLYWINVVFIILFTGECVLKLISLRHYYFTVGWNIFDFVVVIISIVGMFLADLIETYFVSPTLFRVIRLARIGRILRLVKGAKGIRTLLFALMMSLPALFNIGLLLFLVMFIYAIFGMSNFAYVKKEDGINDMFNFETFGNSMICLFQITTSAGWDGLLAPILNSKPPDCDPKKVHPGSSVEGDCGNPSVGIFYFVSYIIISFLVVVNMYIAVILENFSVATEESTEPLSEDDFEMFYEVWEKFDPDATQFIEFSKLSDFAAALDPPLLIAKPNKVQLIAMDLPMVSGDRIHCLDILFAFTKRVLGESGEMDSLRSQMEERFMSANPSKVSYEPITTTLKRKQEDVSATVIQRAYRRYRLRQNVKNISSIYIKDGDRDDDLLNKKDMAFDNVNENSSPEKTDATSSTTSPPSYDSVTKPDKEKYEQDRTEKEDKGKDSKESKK
Sequence of NaV1.8 (Q9Y5Y9 whole entry): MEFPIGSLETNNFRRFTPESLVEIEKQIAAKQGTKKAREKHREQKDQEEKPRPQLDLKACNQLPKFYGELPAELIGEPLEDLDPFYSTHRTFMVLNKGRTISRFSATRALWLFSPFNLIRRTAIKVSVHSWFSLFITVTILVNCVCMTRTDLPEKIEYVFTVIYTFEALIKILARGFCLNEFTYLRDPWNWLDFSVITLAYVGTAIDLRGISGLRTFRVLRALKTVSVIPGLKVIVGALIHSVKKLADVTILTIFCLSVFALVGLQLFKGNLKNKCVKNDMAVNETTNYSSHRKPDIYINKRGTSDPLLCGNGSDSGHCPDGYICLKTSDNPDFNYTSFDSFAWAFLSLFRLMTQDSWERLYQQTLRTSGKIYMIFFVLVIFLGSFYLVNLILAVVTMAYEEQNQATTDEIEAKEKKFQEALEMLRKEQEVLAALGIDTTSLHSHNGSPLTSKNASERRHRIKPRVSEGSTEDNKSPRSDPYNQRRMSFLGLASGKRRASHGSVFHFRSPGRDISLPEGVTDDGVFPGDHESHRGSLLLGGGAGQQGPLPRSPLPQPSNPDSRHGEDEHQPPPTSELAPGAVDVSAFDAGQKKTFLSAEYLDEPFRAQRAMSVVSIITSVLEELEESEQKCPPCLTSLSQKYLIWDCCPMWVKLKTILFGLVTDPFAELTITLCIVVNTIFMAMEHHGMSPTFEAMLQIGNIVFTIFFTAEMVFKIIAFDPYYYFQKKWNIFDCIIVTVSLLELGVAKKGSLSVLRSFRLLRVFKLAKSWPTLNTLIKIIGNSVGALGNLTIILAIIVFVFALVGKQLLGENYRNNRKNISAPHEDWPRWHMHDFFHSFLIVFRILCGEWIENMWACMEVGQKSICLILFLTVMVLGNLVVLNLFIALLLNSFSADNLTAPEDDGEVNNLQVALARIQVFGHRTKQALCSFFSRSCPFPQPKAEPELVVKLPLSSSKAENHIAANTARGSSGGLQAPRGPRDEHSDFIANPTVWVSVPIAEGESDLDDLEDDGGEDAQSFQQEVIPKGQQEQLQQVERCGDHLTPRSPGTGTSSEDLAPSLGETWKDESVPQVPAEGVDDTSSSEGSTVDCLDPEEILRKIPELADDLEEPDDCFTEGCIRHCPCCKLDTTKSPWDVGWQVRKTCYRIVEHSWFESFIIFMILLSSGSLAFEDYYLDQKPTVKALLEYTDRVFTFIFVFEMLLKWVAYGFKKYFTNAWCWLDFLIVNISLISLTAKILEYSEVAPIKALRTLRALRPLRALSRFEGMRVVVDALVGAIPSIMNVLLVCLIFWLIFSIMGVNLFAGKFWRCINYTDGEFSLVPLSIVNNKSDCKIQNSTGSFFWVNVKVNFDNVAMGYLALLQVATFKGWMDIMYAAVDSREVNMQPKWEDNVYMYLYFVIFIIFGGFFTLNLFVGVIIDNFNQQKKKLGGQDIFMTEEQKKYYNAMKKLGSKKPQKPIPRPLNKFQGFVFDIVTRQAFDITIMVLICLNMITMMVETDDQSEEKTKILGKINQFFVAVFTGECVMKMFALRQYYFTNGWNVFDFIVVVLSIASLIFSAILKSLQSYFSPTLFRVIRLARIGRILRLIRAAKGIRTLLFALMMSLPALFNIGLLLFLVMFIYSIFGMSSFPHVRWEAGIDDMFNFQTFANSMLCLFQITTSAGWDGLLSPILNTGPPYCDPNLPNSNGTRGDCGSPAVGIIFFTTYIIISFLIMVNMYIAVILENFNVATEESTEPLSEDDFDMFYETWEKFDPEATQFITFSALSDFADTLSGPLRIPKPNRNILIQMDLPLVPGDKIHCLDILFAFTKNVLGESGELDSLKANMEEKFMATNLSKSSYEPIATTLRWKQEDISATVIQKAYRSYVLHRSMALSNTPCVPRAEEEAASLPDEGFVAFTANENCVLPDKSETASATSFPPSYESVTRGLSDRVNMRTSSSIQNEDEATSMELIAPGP

| SMILES | IC50 (NaV1.3 [1]) [µM] | IC50 (NaV1.8) [µM] | IC50 (NaV 1.7 channel) [µM] | further results |
| --- | --- | --- | --- | --- |
| NC(=O)c1cccc(NC(=O)c2ccccc2Cc2ccccc2)c1 [Compound 1] | > 20 | – | – | – |
| NC(=O)c1cccc(NC(=O)c2ccccc2Nc2cccc(F)c2)c1 [Compound 2] | > 20 | – | – | – |
| NC(=O)c1cccc(NC(=O)c2ccccc2Oc2ccc(F)cc2)c1 [Compound 3, N-(3-carbamoylphenyl)-2-(4-fluorophenoxy)benzamide] | 10 to 20 | < 2 | – | – |
| NC(=O)c1cccc(NC(=O)c2ccccc2Oc2ccc(Br)cc2)c1 [Compound 4] | 2 to 10 | < 2 | – | – |
| NC(=O)c1cccc(NC(=O)c2ccccc2Oc2ccc(C(F)(F)F)cc2)c1 [Compound 5] | 10 to 20 | – | – | – |
| Cc1ncccc1Oc1cc(C(C)(C)C)ccc1C(=O)Nc1cccc(C(N)=O)c1 [Compound 6] | > 20 | < 2 | > 20 | – |
| CC(C)(C)c1ccc(C(=O)Nc2cccc(C(N)=O)c2)c(Oc2ccc(C(F)(F)F)nc2)c1 [Compound 7] | 10 to 20 | < 2 | 2 to 10 | – |
| CC(C)(C)c1ccc(C(=O)Nc2cccc(C(N)=O)c2)c(Oc2ccc(F)cc2Cl)c1 [Compound 8] | 10 to 20 | < 2 | 2 to 10 | – |
| CC(C)(C)c1ccc(C(=O)Nc2cccc(S(C)(=O)=O)c2)c(Oc2ccc(F)cc2Cl)c1 [Compound 9] | 10 to 20 | < 2 | 2 to 10 | – |
| CC(C)(C)c1ccc(C(=O)Nc2cccc(NS(C)(=O)=O)c2)c(Oc2ccc(F)cc2Cl)c1 [Compound 10] | 10 to 20 | 2 to 10 | 2 to 10 | – |
| CNC(=O)c1cccc(NC(=O)c2ccc(C(C)(C)C)cc2Oc2ccc(F)cc2Cl)c1 [Compound 11] | 2 to 10 | < 2 | 2 to 10 | – |
| Cc1ncccc1Oc1cc(C(C)(C)C)ccc1C(=O)Nc1cccc(S(C)(=O)=O)c1 [Compound 12] | > 20 | < 2 | 2 to 10 | – |
| CC(C)(C)c1ccc(C(=O)Nc2cccc(S(C)(=O)=O)c2)c(Oc2ncccc2C#N)c1 [Compound 14] | 2 to 10 | < 2 | < 2 | – |
| CC(C)(C)c1ccc(C(=O)Nc2cccc(S(C)(=O)=O)c2)c(Oc2cnccc2C(F)(F)F)c1 [Compound 15] | 2 to 10 | < 2 | 2 to 10 | – |
| CC(C)(C)c1ccc(C(=O)Nc2cccc(S(C)(=O)=O)c2)c(Oc2cccnc2C(F)(F)F)c1 [Compound 16] | 10 to 20 | < 2 | 2 to 10 | – |
| CC(C)(C)c1ccc(C(=O)Nc2cccc(S(C)(=O)=O)c2)c(Oc2cccc(C(F)(F)F)n2)c1 [Compound 17] | 10 to 20 | < 2 | 10 to 20 | – |
| CC(C)(C)c1ccc(C(=O)Nc2cccc(S(C)(=O)=O)c2)c(Oc2ncccc2C(F)(F)F)c1 [Compound 18] | 10 to 20 | < 2 | 2 to 10 | – |
| CN(C(=O)c1ccc(C(C)(C)C)cc1Oc1ccc(F)cc1Cl)c1cccc(S(C)(=O)=O)c1 [Compound 19, 4-tert-Butyl-2-(2-chloro-4-fluorophenoxy)-N-methyl-N-(3-(methylsulfonyl)phenyl)benzamide] | 2 to 10 | 2 to 10 | 2 to 10 | – |
| NC1=N[C@H](O)[C@H]2[C@H]3O[C@]4(O)O[C@@H]([C@@H](O)[C@@]2(N1)[C@@H]4O)[C@]3(O)CO [TTX, tetrodotoxin] | – | – | – | IC50 (NaV1.3 [2]): 0.015 µM; IC50 (NaV1.1): 0.01 µM; IC50 (NaV1.6): 0.006 µM; IC50 (NaV1.9): 1 µM; IC50 (NaV1.2): 0.01 µM |
